Results on four molecules are retold here after patent publication US20070093536A1, “Target protein of antidiabetic and novel antidiabetic insuful corresponding thereto” (priority 2003, published 2007).

The target of the test is T1, FLJ14797-derived protein (γ-tubulin ring complex protein) (Homo sapiens, UniProt Q9UGJ1).
T1 construct: histidine tag (N); FLAG tag (N); made in house; host or cells: cell-free protein synthesis system (PROTEIOS; TOYOBO) using wheat germ extracts
Nature of the test: Biacore S51 surface plasmon resonance analysis of interaction between compound and immobilized FLJ14797-derived protein. The class given is binding. The protocol:
Genes of interest in human full-length cDNA clones were subjected to BP reaction with a PCR cloning vector Gateway pDONR201 using Gateway system available from Invitrogen according to the kit's protocol to give an entry vector. pEU3-NII (TOYOBO) compatible with a cell-free protein synthesis system (PROTEIOS; TOYOBO) using wheat germ extracts was used as a source vector, from which a double-tag destination vector used as the destination vector of the Gateway system was prepared by introducing Gateway cassette with Gateway recombinant sequence into the pEU3-NII vector so that the Gateway system could be utilized, and further modifying the resulting vector by PCR so that peptides having histidine and FLAG tag sequences would be expressed in the N-terminal region of an expressed protein.
The prepared double-tag destination vector and entry vector were used to conduct […] using the Gateway system (Invitrogen) according to the protocol. The resulting product was transformed into Escherichia coli competent cells DH5α to select clones where the expression vector was introduced. Plasmids were prepared from the obtained clones using QIAfilter Midi kit (QIAGEN) according to the kit's protocol. The obtained plasmids were treated with phenol and chloroform according to the PROTEIOS (TOYOBO) protocol and subjected to the inactivation treatment of RNase to give purified expression plasmids.
Recombinant proteins were synthesized by the cell-free protein synthesis system (PROTEIOS; TOYOBO) using wheat germ extracts. mRNA was prepared according to the PROTEIOS protocol from the expression plasmids obtained by the method described in the paragraph 1. A 20-μg aliquot of the obtained mRNA was used to synthesize proteins in 2 wells of a 96-well micro titer plate according to the PROTEIOS protocol. The synthesized proteins were subjected to high-speed centrifugation treatment to remove precipitations. The obtained soluble fractions were purified using ANTI-FLAG M2 Affinity Gel (SIGMA) immobilizing thereon an anti-FLAG tag antibody according to the protocol to give purified proteins.
The surface of a CM5 sensor chip for S51 commercially available from Biacore was converted to NTA using IM EDC, 1.33 M NHS, and 16 mg/ml AB-NTA (pH 9.2) to make an NTA sensor chip for S51. The proteins expressed in the wheat germ system and purified with a FLAG tag were immobilized on this chip. The immobilization was performed by sequentially injecting 0.5 M NiCl2, 0.4 M EDC, […], a ligand (protein) solution, and 1 M ethanolamine (pH 8.5) into the passage system of Biacore S51. A running buffer used for the immobilization was PBS (pH 7.4). The ligand-immobilized sensor chip was used to conduct assay described below. A running buffer used was prepared by adding DMSO at the final concentration of 5% to HBS (10 mM HEPES and 150 mM NaCl, (pH 7.6)), 0.005% P20, and 100 uM mineral ion cocktail (Ca(OAc)2, Zn(OAc)2.2H2O, Cu(OAc)2.H2O, Co(OAc)2.4H2O, Mn(OAc)2.4H2O, Mg(OAc)2.4H2O, and FeCl3.6H2O). Compounds to be measured were prepared by making ½ serial dilutions (9 points) from 62.5 uM to 0.244 uM solutions. Solvents used for the compound solutions were prepared in the same composition as that of the running buffer. A solution containing only the solvents without the compound was prepared for zero-concentration measurement. […]
On the technique in general: In SPR one partner is held on a chip, and binding of the other changes the refractive index at the surface.

Where [1] appears, read: Biacore S51, FLJ14797-derived protein, same way as Example 1, Table 1, read-out: KD.

pKd: −log10 of the molar value. Like-named read-outs stand apart in the source and are kept apart here.

T1 sequence (Q9UGJ1 whole entry, one chain of several): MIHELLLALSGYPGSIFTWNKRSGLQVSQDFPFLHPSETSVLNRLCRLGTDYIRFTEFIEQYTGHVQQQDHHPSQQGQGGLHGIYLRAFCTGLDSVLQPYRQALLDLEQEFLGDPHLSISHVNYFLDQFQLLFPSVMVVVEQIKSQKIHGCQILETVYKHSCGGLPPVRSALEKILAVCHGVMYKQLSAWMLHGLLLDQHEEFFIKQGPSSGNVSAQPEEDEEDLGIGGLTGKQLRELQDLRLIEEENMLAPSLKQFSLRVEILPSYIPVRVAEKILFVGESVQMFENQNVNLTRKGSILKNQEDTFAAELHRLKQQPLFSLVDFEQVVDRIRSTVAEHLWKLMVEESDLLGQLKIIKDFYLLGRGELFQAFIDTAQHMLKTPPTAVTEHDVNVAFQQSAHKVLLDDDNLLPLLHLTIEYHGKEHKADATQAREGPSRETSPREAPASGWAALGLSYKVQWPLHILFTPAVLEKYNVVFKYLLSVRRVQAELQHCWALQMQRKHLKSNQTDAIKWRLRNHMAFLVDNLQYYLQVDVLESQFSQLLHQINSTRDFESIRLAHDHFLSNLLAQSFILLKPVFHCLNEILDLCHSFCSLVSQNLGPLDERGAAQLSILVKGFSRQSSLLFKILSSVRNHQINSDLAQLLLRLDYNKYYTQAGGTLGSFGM

Usually pKd stands for the Kd on a negative log10 scale, so that one unit is a factor of ten. In the case of `CC1(OCCOc2ccc(CC3SC(=O)NC3=O)cc2)CCCCC1` (centres unmarked) [Compound A-1, 5-{4-[2-(1-methyl-cyclohexyloxy)-ethoxy]-benzyl}-thiazolidine-2,4-dione], under setting [1], the pKd is 5.07.
Still for that read-out and setting: under `O=C1NC(=O)C(Cc2ccc(OCCOC3CCCCC3)cc2)S1` (centres unmarked) [Compound A-2] stands 4.86; under `O=C1NC(=O)C(Cc2ccc(OCCOC3CCCC3)cc2)S1` (centres unmarked) [Compound A-3], 4.67.
Turning to `CCc1ccc(CCOc2ccc(CC3SC(=O)NC3=O)cc2)nc1` (centres unmarked) [pioglitazone, reference compound], where the note is “Biacore S51, FLJ14797-derived protein immobilized on NTA chip, compound 62.5 uM to 0.244 uM, Example 1, read-out: binding dissociation constant KD”, the pKd is 5.04. Besides, the “interaction with FLJ14797-derived protein (specificity of binding)” value (Biacore S51, binding dose-dependent and saturated at high doses) is on record as “specific”.
